Laboratory results: US20050124498A1, “Halobenzyl substituted phenylaceto esters and amides and use thereof for prevention of harmful organisms” (priority 2002, published 2005)

Assays:
Sphaerotheca fuliginea = experiment: Sphaerotheca test (cucumber)/protective; type: in vivo; conditions: Podosphaera fuliginea, 168 h, protective, application rate 100 g/ha, evaluation 7 days after inoculation, read-out: efficacy
Description: (§1) Sphaerotheca test (cucumber)/protective [table] To produce a suitable preparation of active compound, 1 part by weight of active compound is mixed with the stated amounts of solvent and emulsifier, and the concentrate is diluted with water to the desired concentration. To test for protective activity, young plants are sprayed with the preparation of active compound at the stated application rate. After the spray coating has dried on, the plants are inoculated with an aqueous spore suspension of Sphaerotheca fuliginea. The plants are then placed in a greenhouse at about 23° C. and about 70% relative atmospheric humidity.

[1] = test system: army worm (Spodoptera frugiperda); experiment: Spodoptera frugipereda test/synthetic feed; type: in vivo; conditions: larva (L3) on synthetic feed, concentration of active compound 500 ppm
Description: Spodoptera frugipereda test/synthetic feed [table] To produce a suitable preparation of active compound, 1 part by weight of active compound is mixed with the stated amount of solvent and the stated amount of emulsifier, and the concentrate is diluted with emulsifier-containing water to the desired concentration. A stated amount of the preparation of active compound of the desired concentration is pipetted onto a standardized amount of synthetic feed. In 6 replications, in each case one larva (L3) of the army worm (Spodoptera frugiperda) is placed onto the feed. After the desired period of time, the kill in % is determined. 100% means that all animals have been killed; 0% means that none of the animals have been killed.

[2] = test system: Erysiphe graminis f.sp. hordei; experiment: Erysiphe test (barley)/protective; type: in vivo; conditions: Blumeria graminis, 168 h, protective, application rate 500 g/ha, evaluation 7 days after inoculation, read-out: efficacy
Description: Erysiphe test (barley)/protective [table] To produce a suitable preparation of active compound, 1 part by weight of active compound is mixed with the stated amounts of solvent and emulsifier, and the concentrate is diluted with water to the desired concentration. To test for protective activity, young plants are sprayed with the preparation of active compound at the stated application rate. After the spray coating has dried on, the plants are dusted with spores of Erysiphe graminis f.sp. hordei. The plants are placed in a greenhouse at a temperature of about 20° C. and a relative atmospheric humidity of about 80% to promote the development of mildew pustules.

[3] = test system: apple mildew pathogen Podosphaera leucotricha; experiment: Podosphaera test (apple)/protective; type: in vivo; conditions: 240 h, protective, application rate 100 g/ha, evaluation 10 days after inoculation, read-out: efficacy
Description: as §1, with “Podosphaera” for “Sphaerotheca”, “(apple)/protective” for “(cucumber)/protective”, “the apple mildew pathogen Podosphaera leucotricha.” for “Sphaerotheca fuliginea.”

[4] = test system: apple scab pathogen Venturia inaequalis; experiment: Venturia test (apple)/protective; type: in vivo; conditions: 240 h, protective, application rate 100 g/ha, evaluation 10 days after inoculation, read-out: efficacy
Description: Venturia test (apple)/protective […] To produce a suitable preparation of active compound, 1 part by weight of active compound is mixed with the stated amounts of solvent and emulsifier, and the concentrate is diluted with water to the desired concentration. To test for protective activity, young plants are sprayed with the preparation of active compound at the stated application rate. After the spray coating has dried on, the plants are inoculated with an aqueous conidia suspension of the apple scab pathogen Venturia inaequalis and then remain in an incubation cabin at about 20° C. and 100% relative atmospheric humidity for 1 day. The plants are then placed in a greenhouse at about 21° C. and a relative atmospheric humidity of about 90%.

Phytophthora infestans = experiment: whole plant or invertebrate; type: in vivo; conditions: in Solanum lycopersicum, 72 h, read-out: efficacy
Leptosphaeria nodorum = Leptosphaeria nodorum test (wheat)/protective; type: in vivo; conditions: Parastagonospora nodorum, 240 h, protective, application rate 500 g/ha, evaluation 10 days after inoculation, read-out: efficacy
Description: Leptosphaeria nodorum test (wheat)/protective [table] To produce a suitable preparation of active compound, 1 part by weight of active compound is mixed with the stated amounts of solvent and emulsifier, and the concentrate is diluted with water to the desired concentration. To test for protective activity, young plants are sprayed with the preparation of active compound at the stated application rate. After the spray coating has dried on, the plants are sprayed with a spore suspension of Leptosphaeria nodorum. The plants remain in an incubation cabin at 20° C. and 100% relative atmospheric humidity for 48 hours. The plants are placed in a greenhouse at a temperature of about 15° C. and a relative atmospheric humidity of 80%.

[5] = test system: green peach aphid (Myzus persicae); experiment: Myzus test/broad beans; type: in vivo; conditions: broad bean seedlings dipped, active compound concentration 100 ppm, after 6 days
Description: Myzus test/broad beans [table] To produce a suitable preparation of active compound, 1 part by weight of active compound is mixed with the stated amount of solvent and the stated amount of emulsifier, and the concentrate is diluted with emulsifier-containing water to the desired concentration. Broad bean seedlings (Vicia faba minor) which are infected by the green peach aphid (Myzus persicae) are dipped into a preparation of active compound of the desired concentration and placed into a plastic dish. After the desired period of time, the kill in percent is determined. 100% means that all animals have been killed; 0% means that none of the animals have been killed.

[6] = logP determination by HPLC (EEC Directive 79/831 Annex V.A8); conditions: pH 2

| Structure (SMILES) | pest or weed control at 100 g/ha (Sphaerotheca fuliginea) [%] | kill rate [1] [%] | pest or weed control at 500 g/ha [2] [%] | pest or weed control at 100 g/ha [3] [%] | chromatographic logP (physchem; pH 2, log P (pH 2)) | pest or weed control at 100 g/ha [4] [%] | pest or weed control at 100 g/ha (Phytophthora infestans) [%] | pest or weed control at 500 g/ha (Leptosphaeria nodorum) [%] | chromatographic logP (physchem; logP) | kill [5] [%] | log P (pH 2) | chromatographic logP [6] |
| --- | --- | --- | --- | --- | --- | --- | --- | --- | --- | --- | --- | --- |
| CO/N=C(/C(=O)OC)c1c(F)cccc1Oc1ncnc(Oc2cccc(Cl)c2C)c1F [Example 1, methyl {2-[6-(3-chloro-2-methylphenoxy)-5-fluoropyrimidin-4-yloxy]-6-fluorophenyl}methoxyiminoacetate] | ≥ 98 | ≥ 98 | ≥ 98 | ≥ 82 | 4.23 | ≥ 97 |  |  |  |  |  |  |
| CNC(=O)/C(=N/OC)c1c(F)cccc1Oc1ncnc(Oc2ccccc2Cl)c1F [Example 2, 2-{2-[6-(2-chlorophenoxy)-5-fluoropyrimidin-4-yloxy]-6-fluorophenyl}-2-methoxyimino-N-methylacetamide] | ≥ 98 |  |  | ≥ 82 | 3.1 | ≥ 97 | ≥ 86 | ≥ 98 |  |  |  |  |
| CO/N=C(/C(=O)OC)c1c(F)cccc1COc1ccccc1C [Example 8, methyl (2-fluoro-6-o-tolyloxymethylphenyl)methoxyiminoacetate] | ≥ 98 |  | ≥ 98 | ≥ 82 | 3.65 | ≥ 97 |  |  |  |  |  |  |
| CO/N=C(/C(=O)OC)c1c(F)cccc1Oc1ncnc(Oc2cccc(Cl)c2Cl)c1F [Example 12] | ≥ 98 |  | ≥ 98 | ≥ 82 |  | ≥ 97 | ≥ 86 |  | 4.16 |  |  |  |
| CO/N=C(/C(=O)OC)c1c(F)cccc1Oc1ncnc(Oc2ccccc2Cl)c1F [Example 14] | ≥ 98 |  | ≥ 98 | ≥ 82 |  | ≥ 97 | ≥ 86 |  | 3.73 |  |  |  |
| CNC(=O)/C(=N/OC)c1ccc(F)cc1Oc1ncnc(Oc2ccccc2F)c1F [Example 16] |  |  |  |  |  |  |  | ≥ 98 | 3.03 |  |  |  |
| CNC(=O)/C(=N/OC)c1ccc(F)cc1Oc1ncnc(Oc2ccc(Cl)cc2)c1F [Example 22] |  |  |  |  |  |  |  | ≥ 98 | 3.32 |  |  |  |
| CNC(=O)/C(=N/OC)c1ccc(F)cc1Oc1ncnc(Oc2ccccc2C(F)(F)F)c1F [Example 31] | ≥ 98 |  |  | ≥ 82 |  | ≥ 97 | ≥ 86 | ≥ 98 | 3.26 |  |  |  |
| CNC(=O)/C(=N/OC)c1c(F)cccc1Oc1ncnc(Oc2cccc(Cl)c2C)c1F [Example 45] | ≥ 98 |  |  | ≥ 82 |  | ≥ 97 | ≥ 86 | ≥ 98 | 3.6 |  |  |  |
| CNC(=O)/C(=N/OC)c1c(F)cccc1Oc1cc(Oc2cccc(Cl)c2Cl)ncn1 [Example 46] | ≥ 98 |  |  | ≥ 82 |  | ≥ 97 | ≥ 86 | ≥ 98 | 3.23 |  |  |  |
| CNC(=O)/C(=N/OC)c1c(F)cccc1Oc1cc(Oc2ccccc2Cl)ncn1 [Example 47] | ≥ 98 |  |  | ≥ 82 |  | ≥ 97 | ≥ 86 | ≥ 98 | 2.79 |  |  |  |
| CNC(=O)/C(=N/OC)c1c(F)cccc1Oc1ncnc(Oc2cccc(Cl)c2Cl)c1F [Example 48] | ≥ 98 |  |  | ≥ 82 |  | ≥ 97 | ≥ 86 | ≥ 98 | 3.5 |  |  |  |
| CO/N=C(/C(=O)OC)c1c(F)cccc1CO/N=C(\C)c1cccc(C(F)(F)F)c1 [Example 50] | ≥ 98 |  | ≥ 98 | ≥ 82 |  | ≥ 97 | ≥ 86 |  | 4.27 |  |  |  |
| CNC(=O)/C(=N/OC)c1c(F)cccc1CO/N=C(\C)c1cccc(C(F)(F)F)c1 [Example 51] | ≥ 98 |  | ≥ 98 | ≥ 82 |  | ≥ 97 | ≥ 86 |  | 3.71 |  |  |  |
| CNC(=O)/C(=N\OC)c1c(F)cccc1CO/N=C(\C)c1cccc(C(F)(F)F)c1 [Example 56] | ≥ 98 |  |  | ≥ 82 |  | ≥ 97 | ≥ 86 |  | 3.8 | 100 |  |  |
| CNC(=O)/C(=N/OC)c1c(F)cccc1Oc1cc(Oc2cccc(Cl)c2C)ncn1 [Example 57] | ≥ 98 |  |  | ≥ 82 |  | ≥ 97 | ≥ 86 | ≥ 98 | 3.24 |  |  |  |
| CO/N=C(/C(=O)OC)c1c(F)cccc1CBr [Example (VIII-1), methyl (2-bromomethyl-6-fluorophenyl)methoxyiminoacetate] |  |  |  |  | 2.58 |  |  |  |  |  | 2.87 |  |
| Cc1cccc(F)c1C(=O)C#N [Example (XX-1), 2-fluoro-6-methylbenzoyl cyanide] |  |  |  |  |  |  |  |  |  |  |  | 2.55 |
